Consider 4 molecules from patent US8461185B2, “P2X3 receptor antagonists for treatment of pain” (Merck Sharp & Dohme Corp., priority 2007, dated 2013).

pIC50: −log10 of the molar value.

For the experiment, the target named is T1, human P2X3 (Homo sapiens, UniProt P56373).
T1 construct: expressed in transfected cells
T1 sequence (P56373 1-397): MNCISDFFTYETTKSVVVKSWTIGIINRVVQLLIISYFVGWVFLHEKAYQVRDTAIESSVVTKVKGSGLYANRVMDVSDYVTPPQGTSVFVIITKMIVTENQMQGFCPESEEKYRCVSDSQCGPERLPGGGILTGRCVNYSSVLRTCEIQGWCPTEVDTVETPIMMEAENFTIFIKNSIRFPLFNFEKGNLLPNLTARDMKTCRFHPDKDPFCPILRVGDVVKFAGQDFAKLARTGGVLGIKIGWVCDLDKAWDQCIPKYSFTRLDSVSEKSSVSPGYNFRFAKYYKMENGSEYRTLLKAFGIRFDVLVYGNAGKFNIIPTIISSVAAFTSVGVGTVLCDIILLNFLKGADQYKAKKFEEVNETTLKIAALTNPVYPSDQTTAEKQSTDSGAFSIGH
Description: Intracellular Calcium Measurement to Assess Antagonist Affinity (FLIPR, Fluo-4, agonist α,β-meATP). Format: cell-based. As to conditions: Intracellular Calcium Measurement to Assess Antagonist Affinity assay; [α,β-meATP]final=EC50. The source says:
Generation of a Human P2X3 and P2X2/3 Stable Cell Line—Human P2X3 receptor cDNA (Accession number NM_002559) was subcloned as a 5′XhoI and 3′HindIII fragment into the expression vector pcDNA5/FRT (Invitrogen). Human P2X2 receptor cDNA (Accession number NM_174873) was subcloned as a 5′EcoRI and 3′NotI fragment into the expression vector pIRESneo2 (BD Biosciences Clontech). The human P2X3 expression construct was transfected using Lipofectamine 2000 (Invitrogen) into Flp-in—293 cells (Invitrogen) according to the manufacturer's directions. Cells positive for flp-mediated recombination of […] P2X3 were selected using 150 μg/ml hygromycin. The stable human P2X3 cell line was co-transfected with the human P2X2 expression construct using Lipofectamine 2000 as above and co-transfected cells selected using […] hygromycin and 1 mg/ml G418. The stable P2X3 cell line was propagated in DMEM, 10% FBS, 100 μg/ml hygromycin, and 100 units/ml penicillin and 100 μg/ml streptomycin, and maintained at 37° and 95% humidity. The stable P2X2/3 cell line was propagated as above with the addition of 500 μg/ml G418.
Intracellular Calcium Measurement to Assess Antagonist Affinity—A fluorescent imaging plate reader (FLIPR; Molecular Devices) was used to monitor intracellular calcium levels using the calcium-chelating dye Fluo-4 (Molecular Probes). The excitation and emission wavelengths used to monitor fluorescence were 488 nm and 530 nm, respectively. Cells expressing either human P2X3 or human P2X2/3 were plated at a density of 20,000 cells/well (20 μl/well) in 384-well black-walled plates approximately 20 hours before beginning the assay. On the day of the assay 20 μl of loading buffer (Hank's balanced salt solution, 2.5 mM CaCl2, 20 mM HEPES, 0.1% BSA, 2.5 mM probenecid, TR-40, Fluo-4, and 138 mM NMDG substituted for NaCl) is added and cells dye-loaded for […] in the dark at room temperature. Ten minutes prior to adding agonist, the antagonist was added in a volume of 10 μl and allowed to incubate at room temperature. During this period fluorescence data is collected at 3 sec intervals followed by 10 sec intervals. The agonist, α,β-meATP, is added at a 6× concentration ([α,β-meATP]final=EC50). Following agonist addition fluorescence was measured at 5 sec intervals and analyzed based on the increase in peak relative fluorescence units (RFU) compared to the basal fluorescence. Peak fluorescence was used to determine the inhibitory effect at each concentration of antagonist by the following equation: % Inhibition=100*(1−((RFU(drug)−RFU(control))/(RFU(DMSO only)−RFU(control))))
With `C[C@@H](NC(=O)c1cc(C2=NO[C@H](c3ccccn3)C2)cc(-c2ccc(Cl)cn2)c1)c1ccc(F)cn1` [3-(5-chloropyridin-2-yl)-N-[(1R)-1-(5-fluoropyridin-2-yl)ethyl]-5-[(5S)-5-pyridin-2-yl-4,5-dihydroisoxazol-3-yl]benzamide], the pIC50 was 6.96.
Next, `Cc1ccc(-c2cc(C(=O)N[C@H](C)c3ccc(C(F)(F)F)nc3)cc(C3=NO[C@H](c4ccccn4)C3)c2)nc1` [3-(5-methylpyridin-2-yl)-5-[(5S)-5-pyridin-2-yl-4,5-dihydroisoxazol-3-yl]-N-{(1R)-1-[6-(trifluoromethyl)pyridin-3-yl]ethyl}benzamide]: 8.00; `Cc1ccc(-c2cc(C(=O)N[C@H](C)c3ncc(F)cc3F)cc(C3=NOC4(CCC4)C3)c2)nc1` [N-[(1R)-1-(3,5-difluoropyridin-2-yl)ethyl]-3-(5-methylpyridin-2-yl)-5-(5-oxa-6-azaspiro[3.4]oct-6-en-7-yl)benzamide]: 7.24.
The result for `Cc1ccc(-c2cc(C(=O)N[C@H](C)c3ccc(F)cn3)cc(C3=NO[C@H](c4ccccn4)C3)c2)nc1` [N-[(1R)-1-(5-fluoropyridin-2-yl)ethyl]-3-(5-methylpyridin-2-yl)-5-[(5S)-5-pyridin-2-yl-4,5-dihydroisoxazol-3-yl]benzamide] reads 7.70.
